“And” between values parts separate entries of the source, which are not always exact repeats. Equal entries are not always repeated. “Also recorded” adds a separate entry of the source.
Experiments:
[1] = tested on: SuSC crude synaptosomes; type: biochemical, mouse; conditions: n = 5
[2] = tested on: α6β2*-nAChR, crude striatal synaptosomes; type: biochemical, mouse
[3] = tested on: nAChRs on SuSC GABAergic terminals (crude synaptosomes); type: biochemical, mouse
[4] = tested on: nAChRs in SuSC membranes; type: binding, mouse (C57BL/6)
[5] = tested on: nAChRs, SuSC crude synaptosomes of nAChR subunit null mutant mice; type: biochemical, mouse
[6] = tested on: α-CtxMII-sensitive nAChR, striatum; conditions: cited from earlier work
[7] = tested on: rat α3β2 receptors; conditions: cited from earlier work
[8] = tested on: α6β2* and α3β2* nAChR; conditions: cited from earlier work
[9] = target: α-CtxMII-sensitive nAChR, SuSC crude synaptosomes (Mus musculus, UniProt Q8R4G9+Q9ERK7); type: biochemical
α-CtxMII-sensitive nAChR, SuSC crude synaptosomes, sequence (Q8R4G9 whole entry, looked up): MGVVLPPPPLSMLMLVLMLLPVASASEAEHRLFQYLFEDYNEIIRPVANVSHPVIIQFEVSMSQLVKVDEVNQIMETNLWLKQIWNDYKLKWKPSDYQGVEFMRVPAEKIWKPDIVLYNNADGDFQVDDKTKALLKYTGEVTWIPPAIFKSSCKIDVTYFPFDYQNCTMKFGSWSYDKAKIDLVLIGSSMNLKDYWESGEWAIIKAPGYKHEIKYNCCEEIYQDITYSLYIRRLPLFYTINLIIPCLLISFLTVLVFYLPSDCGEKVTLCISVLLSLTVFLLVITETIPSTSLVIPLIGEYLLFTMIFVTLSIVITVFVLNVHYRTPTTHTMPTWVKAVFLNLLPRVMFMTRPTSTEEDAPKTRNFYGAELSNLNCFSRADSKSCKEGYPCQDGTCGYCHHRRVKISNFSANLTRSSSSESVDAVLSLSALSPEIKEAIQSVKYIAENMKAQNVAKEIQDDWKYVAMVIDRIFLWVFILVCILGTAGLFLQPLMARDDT
α-CtxMII-sensitive nAChR, SuSC crude synaptosomes, sequence (Q9ERK7 whole entry, looked up): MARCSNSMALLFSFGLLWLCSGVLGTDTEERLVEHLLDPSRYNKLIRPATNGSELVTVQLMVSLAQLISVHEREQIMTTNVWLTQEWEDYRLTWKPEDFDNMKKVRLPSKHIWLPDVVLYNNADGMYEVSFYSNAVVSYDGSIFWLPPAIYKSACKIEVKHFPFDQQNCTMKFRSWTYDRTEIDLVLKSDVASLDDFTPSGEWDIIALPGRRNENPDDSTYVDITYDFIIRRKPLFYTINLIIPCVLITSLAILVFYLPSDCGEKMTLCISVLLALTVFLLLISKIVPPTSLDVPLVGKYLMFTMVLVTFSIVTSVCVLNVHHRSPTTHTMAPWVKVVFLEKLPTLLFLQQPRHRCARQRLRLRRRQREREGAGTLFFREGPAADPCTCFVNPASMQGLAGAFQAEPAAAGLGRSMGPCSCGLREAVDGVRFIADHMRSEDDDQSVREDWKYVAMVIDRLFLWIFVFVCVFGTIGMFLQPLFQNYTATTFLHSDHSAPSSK

[10] = tested on: nAChRs in SC core membranes; type: binding, mouse (C57BL/6)
[11] = tested on: nAChR, SuSC; conditions: rat, in vivo; cited from earlier work
[12] = tested on: α4β2* nAChR; conditions: cited from earlier work

## α-conotoxin MII [α-CtxMII]
[1]
  K^+-evoked [^3H]-GABA release in the presence of α-CtxMII: 14.1 ± 2.7
[2]
  inhibition of ACh-stimulated [^3H]-dopamine release: 41.2 ± 2.8%
[3]
  concentration at which maximal inhibition of [^3H]-GABA release was achieved: 30 nM
  effect of 100nM α-CtxMII on response to ACh: reduced the response seen by stimulation with ACh, but did not eliminate it
  nAChR-mediated SuSC [^3H]-GABA release inhibited by α-conotoxinMII (abstract): Approximately 50%
  α-CtxMII sensitive fraction of total [^3H]-GABA release: 58 ± 7%
[3]; read-out: IC50, inhibition of ACh-stimulated [^3H]-GABA release
  IC50: 1.05 nM
[4]; 0.0002 µM
  specific [^125I]epibatidine binding sensitive to inhibition by α-CtxMII: 40 +/- 5% and 40.2 ± 5.2%
[4]; read-out: IC50 for the α-CtxMII-resistant sites
  IC50: > 1000 nM
[5]
  α-CtxMII sensitive [^3H]-GABA release after β3 subunit gene deletion: unaffected
  α-CtxMII-sensitive [^3H]-GABA release after deletion of the α6 subunit: no appreciable impact
[5]; n = 4
  [^3H]-GABA release in α6-null mutant mice: indistinguishable from the same measures in wild-type mice
[6]
  t1/2 of recovery from α-CtxMII inhibition, [^3H]-DA release: ~26 min
[7]
  t1/2 of recovery from α-CtxMII inhibition, rat α3β2 receptors: approximately 4 minutes
  time by which full recovery was observed, rat α3β2 receptors: ≤ 26 min
[8]
  affinity for α6β2* and α3β2* nAChR subtypes: high affinity
  subtypes inhibited by the α-conotoxin: inhibits both α3β2*- and α6β2*-nAChR
[9]
  lag period during which no recovery was observed: approximately 5 min
[9]; n = 3-4
  functional recovery of ACh-evoked [^3H]-GABA release, of control: 91 ± 18%
  t1/2 for recovery from α-CtxMII inhibition: 5.2 min and ~5 min
[10]
  inhibition of [^125I]-epibatidine binding: not inhibited by α-CtxMII at concentrations below 1 μM

## [125I]c1ccc(C2CC3CCC2N3)cn1 (stereo not shown) [[^125I]-epibatidine]
[4]
  Bmax, specific [^125I]epibatidine binding: 100 ± 2 fmol/mg
[10]
  Bmax, [^125I]-epibatidine binding: 56 ± 2 fmol/mg

## CN1[C@@H]2CC[C@H]1C[C@@H](OC(=O)c1cc(Cl)cc(Cl)c1)C2 [MDL-72222, Tropanyl 3,5-dichlorobenzoate]
[3]; 1 μM, 5 min, n=5
  effect of MDL-72222 on ACh-stimulated [^3H]-GABA release: no effect

## Nc1ncnc2c1ncn2[C@@H]1O[C@H](COP(=O)(O)OP(=O)(O)OP(=O)(O)O)[C@H]2OC3(O[C@H]21)C([N+](=O)[O-])=CC(=[N+]([O-])[O-])C=C3[N+](=O)[O-] (stereo partly shown) [TNP-ATP]
[3]; 10 μM, 4 min, n=3
  effect of TNP-ATP on ACh-stimulated [^3H]-GABA release: no effect

## CN1[C@@H]2CC[C@H]1C[C@@H](OC(=O)C(CO)c1ccccc1)C2 (stereo partly shown) [atropine]
[3]
  effect of atropine on ACh-stimulated [^3H]-GABA release: no effect

## [Cd] [cadmium]
[3]
  block of ACh-stimulated [^3H]-GABA release by cadmium: 94 ± 1%
  effect on ACh-evoked [^3H]-GABA release (abstract): blocked

## CC(=O)OCC[N+](C)(C)C [ACh, Acetylcholine]
[3]
  loss of ACh-evoked [^3H]-GABA release in the absence of external calcium: 94 ± 3%
  maximal ACh-stimulated [^3H]-GABA release, α-CtxMII-resistant component: 1.00 ± 0.20 × baseline
  maximal ACh-stimulated [^3H]-GABA release, α-CtxMII-sensitive component: 0.71 ± 0.08 × baseline
  maximal [^3H]-GABA release, high sensitivity component: 0.68 ± 0.19
  maximal [^3H]-GABA release, low sensitivity component: 1.47 ± 0.21
  share of ACh-elicited [^3H]-GABA release due to α4β2*-type receptor: ~65%
[5]
  ACh-stimulated [^3H]-GABA release in β2^-/- mice: entirely β2 subunit-dependent; also recorded: completely absent
  ACh-stimulated [^3H]-GABA release remaining in α4^-/- mice, of WT activity: 9.7 ± 1.1 % of WT activity remaining
  decrease of total function by α4 subunit deletion: > 90%

## CNC1(C)C2CCC(C2)C1(C)C (stereo not shown) [Mecamylamine, mecamylamine]
[3]
  effect on ACh-evoked [^3H]-GABA release (abstract): blocked
[3]; 10 μM, 1 min, n=3
  effect of mecamylamine on ACh-stimulated [^3H]-GABA release: completely eliminated ACh-stimulated release of [^3H]-GABA

## N#Cc1cc2c(cc1[N+](=O)[O-])=NC(=O)C(=O)N=2 [CNQX, 6-Cyano-7-nitroquinoxaline-2,3-dione]
[3]; 100 μM, 5 min, n=4
  effect of CNQX on ACh-stimulated [^3H]-GABA release: no effect

## C[C@]12N[C@H](Cc3ccccc31)c1ccccc12 [MK-801, (5S,10R)-(+)-5-Methyl-10,11-dihydro-5H-dibenzo[a,d]cyclohepten-5,10-imine]
[3]; 200 μM, 5 min, n=4
  effect of MK-801 on ACh-stimulated [^3H]-GABA release: no effect

## CN1[C@@H](CC(=O)c2ccccc2)CCC[C@H]1C[C@H](O)c1ccccc1 [lobeline]
[11]
  visual responses originating in the SuSC: reduced

## CN1CCC[C@H]1c1cccnc1 [nicotine]
[12]
  binding to α4β2* nAChR: binds nicotine and other agonists with high affinity
